Test results published in patent US10793563B2, “GCN2 inhibitors and uses thereof” (Merck Patent GmbH, priority 2018, dated 2020).
Where two headings read alike, the source gives them in different places.

What was measured:
GCN2 kinase = GCN2 kinase (Homo sapiens (Human), UniProt Q9P2K8); experiment: GCN2 Enzyme Inhibition Assay (Transcreener ADP2 fluorescence polarization); assay type: biochemical; conditions: 280 μM ATP, 200 μM (RS)7 peptide, 4 nM GCN2, 25° C.; for Ki: Ki(app)
Outline: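 Transcreener ADP2 fluorescence polarization detection of ADP from 4 nM GCN2 with (RS)7 substrate in 25 mM Tris-HCl pH 7.5, 50 mM NaCl, 10 mM MgCl2, 1 mM DTT. Compound pre-incubated with enzyme 10 min at 25 °C; reaction started by ATP, run 1 h at 25 °C. IC50 and Ki(app) by tight-binding fit.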

[1] = biological target: intracellular GCN2 (phosphorylation of the GCN2 substrate eIF2α) (Homo sapiens (Human), UniProt Q9P2K8); experiment: GCN2 Cellular Inhibition Assay (AlphaScreen SureFire P-eIF2α Ser51, borrelidin-treated U2OS cells); assay type: cell-based; conditions: 10 μM borrelidin, 1 h
Outline: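 U2OS cells adhered overnight, then given compound (top 40 μM, 4-fold serial dilutions) plus 10 μM borrelidin for 1 h at 37 °C. Lysates assayed for eIF2α phospho-Ser51 by AlphaScreen SureFire; % inhibition versus borrelidin-only wells.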

[2] = phosphorylated eIF2α Ser51, read-out: GCN2 Biomarker (IC50)

Chain of intracellular GCN2 (phosphorylation of the GCN2 substrate eIF2α) (Q9P2K8 whole entry): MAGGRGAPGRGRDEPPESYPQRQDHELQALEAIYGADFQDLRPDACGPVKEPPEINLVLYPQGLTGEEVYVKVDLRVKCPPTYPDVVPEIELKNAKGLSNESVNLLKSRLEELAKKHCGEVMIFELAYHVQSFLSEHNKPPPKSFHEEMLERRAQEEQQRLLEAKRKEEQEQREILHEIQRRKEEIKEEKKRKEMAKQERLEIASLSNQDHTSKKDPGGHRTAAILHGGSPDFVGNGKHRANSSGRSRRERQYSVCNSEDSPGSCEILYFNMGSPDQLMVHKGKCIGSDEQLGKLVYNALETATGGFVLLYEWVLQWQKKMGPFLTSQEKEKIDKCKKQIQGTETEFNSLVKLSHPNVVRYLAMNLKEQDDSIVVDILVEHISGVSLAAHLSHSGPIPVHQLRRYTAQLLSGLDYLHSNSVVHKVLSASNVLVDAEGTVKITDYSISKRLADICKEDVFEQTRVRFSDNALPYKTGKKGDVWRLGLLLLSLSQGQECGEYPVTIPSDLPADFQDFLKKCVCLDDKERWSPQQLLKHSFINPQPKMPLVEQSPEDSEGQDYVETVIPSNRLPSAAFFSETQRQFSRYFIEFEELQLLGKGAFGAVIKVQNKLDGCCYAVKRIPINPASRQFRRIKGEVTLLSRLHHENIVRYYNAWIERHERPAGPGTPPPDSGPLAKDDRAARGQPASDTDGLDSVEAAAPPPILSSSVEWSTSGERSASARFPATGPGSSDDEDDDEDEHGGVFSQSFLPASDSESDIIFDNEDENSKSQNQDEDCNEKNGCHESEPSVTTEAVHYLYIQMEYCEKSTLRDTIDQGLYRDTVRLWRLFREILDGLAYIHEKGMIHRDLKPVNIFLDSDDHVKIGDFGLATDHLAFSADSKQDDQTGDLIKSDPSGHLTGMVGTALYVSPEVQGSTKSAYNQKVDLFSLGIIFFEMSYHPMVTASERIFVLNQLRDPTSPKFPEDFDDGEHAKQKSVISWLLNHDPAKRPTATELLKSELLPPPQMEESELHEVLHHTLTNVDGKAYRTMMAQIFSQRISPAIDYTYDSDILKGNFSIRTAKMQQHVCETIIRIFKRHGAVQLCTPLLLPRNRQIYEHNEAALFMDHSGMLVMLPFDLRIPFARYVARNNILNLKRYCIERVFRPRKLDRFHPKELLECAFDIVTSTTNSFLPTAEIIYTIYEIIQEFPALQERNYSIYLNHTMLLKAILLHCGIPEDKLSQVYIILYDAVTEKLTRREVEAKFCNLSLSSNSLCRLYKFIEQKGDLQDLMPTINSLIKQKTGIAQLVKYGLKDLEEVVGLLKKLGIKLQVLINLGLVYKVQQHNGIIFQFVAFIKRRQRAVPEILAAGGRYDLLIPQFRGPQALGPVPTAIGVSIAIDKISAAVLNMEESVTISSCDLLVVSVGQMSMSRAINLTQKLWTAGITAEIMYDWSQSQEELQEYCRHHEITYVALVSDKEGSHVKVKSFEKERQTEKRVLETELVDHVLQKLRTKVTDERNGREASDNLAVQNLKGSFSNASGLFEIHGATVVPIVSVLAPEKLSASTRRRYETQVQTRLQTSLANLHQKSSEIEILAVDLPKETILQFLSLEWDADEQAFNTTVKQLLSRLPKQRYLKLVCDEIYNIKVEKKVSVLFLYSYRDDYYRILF
Chain of GCN2 kinase (Q9P2K8 whole entry): as above

Row | IC50 (GCN2 kinase) [nM] | IC50 [1, 2] [nM] | Ki (GCN2 kinase) [nM] | Structure (SMILES) | IC50 ([1]; GCN2 Biomarker (IC50), phosphorylated eIF2α Ser51) [nM]
1 | 10 to 100 | 500 to 5000 |  | C[C@H]1CN(c2ccnc(-c3cnc4ccc(C(F)F)cn34)n2)C[C@@H](CO)O1 [I-524, ((2S,6S)-4-(2-(6-(difluoromethyl)imidazo[1,2-a]pyridin-3-yl)pyrimidin-4-yl)-6-methylmorpholin-2-yl)methanol] | 
2 | < 10 | < 500 | < 10 | CC1CC(C(N)=O)CN(c2ccnc(-c3cnc4ccc(C(F)(F)F)cn34)n2)C1 (stereo not drawn) [I-149, 5-Methyl-1-[2-(6-trifluoromethyl-imidazo[1,2-a]pyridin-3-yl)-pyrimidin-4-yl]-piperidine-3-carboxylic acid amide] | 
3 |  | 500 to 5000 | 10 to 100 | Clc1ccc2ncc(-c3nccc(N4CCCC(c5ccon5)C4)n3)n2c1 (stereo not drawn) [I-66, 6-Chloro-3-[4-(3-isoxazol-3-yl-piperidin-1-yl)-pyrimidin-2-yl]-imidazo[1,2-a]pyridine] | 
4 | < 10 | < 500 |  | CC1[C@@H](c2cn[nH]c2)NCCN1c1ccnc(-c2cnc3ccc(C(F)(F)F)cn23)n1 (stereo partly drawn) [I-310, 3-(4-((3R)-2-methyl-3-(1H-pyrazol-4-yl)piperazin-1-yl)pyrimidin-2-yl)-6-(trifluoromethyl)imidazo[1,2-a]pyridine] | 
5 | 100 to 1000 | > 5000 |  | O=S(=O)(NC1CC1)c1ccc2ncc(-c3nccc(N4CCCC(c5cn[nH]c5)C4)n3)n2c1 (stereo not drawn) [I-318, 3-(4-(3-(1H-pyrazol-4-yl)piperidin-1-yl)pyrimidin-2-yl)-N-cyclopropylimidazo[1,2-a]pyridine-6-sulfonamide] | 
6 | 10 to 100 | 500 to 5000 |  | Cc1[nH]ncc1[C@@H]1CN(c2ccnc(-c3cnc4cc(F)c(Cl)cn34)n2)C[C@@H](C)O1 [I-538, (2R,6R)-4-(2-(6-chloro-7-fluoroimidazo[1,2-a]pyridin-3-yl)pyrimidin-4-yl)-2-methyl-6-(5-methyl-1H-pyrazol-4-yl)morpholine] | 
7 | 10 to 100 | < 500 |  | C[C@@H]1CN(c2ccnc(-c3cnc4ccc(Cl)cn34)n2)C[C@@H](C(N)=O)O1 [I-177, (2S,6R)-4-(2-(6-chloroimidazo[1,2-a]pyridin-3-yl)pyrimidin-4-yl)-6-methylmorpholine-2-carboxamide] | 
8 | 10 to 100 | < 500 |  | CC1(C)C[C@H]1CN1CCN(c2ccnc(-c3cnc4ccc(C(F)(F)F)cn34)n2)C[C@H]1c1cn[nH]c1 [I-526, 3-(4-((R)-4-(((R)-2,2-dimethylcyclopropyl)methyl)-3-(1H-pyrazol-4-yl)piperazin-1-yl)pyrimidin-2-yl)-6-(trifluoromethyl)imidazo[1,2-a]pyridine] | 
9 | 10 to 100 | < 500 |  | Cc1oncc1[C@@H]1CN(c2ccnc(-c3cnc4ccc(C(F)(F)F)cn34)n2)C[C@H](C)O1 [I-346, (2S,6R)-2-methyl-6-(5-methylisoxazol-4-yl)-4-(2-(6-(trifluoromethyl)imidazo[1,2-a]pyridin-3-yl)pyrimidin-4-yl)morpholine] | 
10 | 10 to 100 | 500 to 5000 |  | FC(F)(F)c1ccc2ncc(-c3nccc(N4CCCC(n5cncn5)C4)n3)n2c1 (stereo not drawn) [I-356, 3-(4-(3-(1H-1,2,4-triazol-1-yl)piperidin-1-yl)pyrimidin-2-yl)-6-(trifluoromethyl)imidazo[1,2-a]pyridine] | 
11 | 100 to 1000 | > 5000 |  | C[C@@H]1CN(c2ccnc(-c3cnc4ccc(C(F)(F)F)cn34)n2)C[C@H](C)N1C(=O)c1ccn(C2CC2)n1 [I-440, (1-cyclopropyl-1H-pyrazol-3-yl)(cis-2,6-dimethyl-4-(2-(6-(trifluoromethyl)imidazo[1,2-a]pyridin-3-yl)pyrimidin-4-yl)piperazin-1-yl)methanone] | 
12 | 10 to 100 | 500 to 5000 |  | C[C@@H]1C[C@H](N=S(C)(C)=O)CN(c2ccnc(-c3cnc4ccc(Br)cn34)n2)C1 [I-289, (((3 S,5R)-1-(2-(6-bromoimidazo[1,2-a]pyridin-3-yl)pyrimidin-4-yl)-5-methylpiperidin-3-yl)imino)dimethyl-λ6-sulfanone] | 
13 | 100 to 1000 | > 5000 |  | C[C@@H]1[C@H]([C@@H](C)NS(C)(=O)=O)N(C2CC2)CCN1c1ccnc(-c2cnc3ccc(C(F)(F)F)cn23)n1 [I-505, N—((R)-1-((2R,3R)-1-cyclopropyl-3-methyl-4-(2-(6-(trifluoromethyl)imidazo[1,2-a]pyridin-3-yl)pyrimidin-4-yl)piperazin-2-yl)ethyl)methanesulfonamide] | 

Continued, compound first:

Row | Structure (SMILES) | IC50 (GCN2 kinase) [nM] | IC50 [1, 2] [nM] | Ki (GCN2 kinase) [nM] | IC50 ([1]; GCN2 Biomarker (IC50), phosphorylated eIF2α Ser51) [nM]
14 | Cc1cc(-c2cnc3ccc(Cl)cn23)nc(N2C[C@H](C)O[C@@H](c3c[nH]nc3C)C2)n1 [I-220, (2S,6S)-4-(4-(6-chloroimidazo[1,2-a]pyridin-3-yl)-6-methylpyrimidin-2-yl)-2-methyl-6-(5-methyl-1H-pyrazol-4-yl)morpholine] | 10 to 100 | 500 to 5000 |  | 
15 | CC1(CN2CCN(c3ccnc(-c4cnc5ccc(C(F)(F)F)cn45)n3)CC2c2cn[nH]c2)CC1 (stereo not drawn) [I-510, 3-(4-(4-((1-methylcyclopropyl)methyl)-3-(1H-pyrazol-4-yl)piperazin-1-yl)pyrimidin-2-yl)-6-(trifluoromethyl)imidazo[1,2-a]pyridine] | < 10 | < 500 |  | 
16 | Cn1cc(NC(=O)[C@H]2CCCN(c3ccnc(-c4cnc5cc(F)c(Cl)cn45)n3)C2)cn1 [I-59, (S)-1-[2-(6-Chloro-7-fluoro-imidazo[1,2-a]pyridine-3-yl)-pyrimidin-4-yl]-piperidine-3-carboxylic acid (1-methyl-1H-pyrazol-4-yl)-amide] |  | > 5000 | 100 to 1000 | 
17 | CC(C)(C)OC(=O)N1CC2(C1)OCCN(c1ccnc(-c3cnc4ccc(C(F)(F)F)cn34)n1)C2(C)C [I-388, tert-butyl 9,9-dimethyl-8-(2-(6-(trifluoromethyl)imidazo[1,2-a]pyridin-3-yl)pyrimidin-4-yl)-5-oxa-2,8-diazaspiro[3.5]nonane-2-carboxylate] | 100 to 1000 | > 5000 |  | 
18 | NC(=O)[C@@H]1CCCN(c2nc(-c3cnc4ccc(C(F)(F)F)cn34)ccc2F)C1 [I-260, (R)-1-(3-fluoro-6-(6-(trifluoromethyl)imidazo[1,2-a]pyridin-3-yl)pyridin-2-yl)piperidine-3-carboxamide] | < 10 | < 500 |  | 
19 | Cc1noc([C@H]2CN(c3ccnc(-c4cnc5ccc(Cl)cn45)n3)C[C@@H](C)O2)n1 [I-54] |  |  | 10 to 100 | 500 to 5000
20 | OCC1(c2ccccc2)CCCN(c2ccnc(-c3cnc4cc(F)c(Cl)cn34)n2)C1 (stereo not drawn) [I-85, {1-[2-(6-Chloro-7-fluoro-imidazo[1,2-a]pyridin-3-yl)-pyrimidin-4-yl]-3-phenyl-piperidin-3-yl}-methanol] |  | > 5000 | 100 to 1000 | 
21 | FC(F)(F)c1ccc2ncc(-c3ccnc(N4CCN(C5CC5)[C@H](c5cn[nH]c5)C4)n3)n2c1 [I-508, 3-{2-[(R)-4-Cyclopropyl-3-(1H-pyrazol-4-yl)-piperazin-1-yl]-pyrimidin-4-yl}-6-trifluoromethyl-imidazo[1,2-a]pyridine] | < 10 | < 500 |  | 
22 | FC(F)c1ccc2ncc(-c3ccnc(N4CCOC(c5cn[nH]c5)C4)n3)n2c1 (stereo not drawn) [I-18, 4-[4-[6-(Difluoromethyl)imidazo[1,2-a]pyridin-3-yl]pyrimidin-2-yl]-2-(1H-pyrazol-4-yl)morpholine] |  | < 500 | < 10 | 
23 | C[C@@H]1CN(c2nccc(-c3cnc4cc(F)c(Cl)cn34)n2)C[C@H](c2cn[nH]c2)O1 [I-273, (2R,6S)-4-(4-(6-chloro-7-fluoroimidazo[1,2-a]pyridin-3-yl)pyrimidin-2-yl)-2-methyl-6-(1H-pyrazol-4-yl)morpholine] | < 10 | < 500 |  | 
24 | Cc1n[nH]cc1[C@@H]1CN(c2ccnc(-c3cnc4cc(Cl)c(C(F)(F)F)cn34)n2)C[C@@H](C)O1 [I-360, (2R,6R)-4-(2-(7-chloro-6-(trifluoromethyl)imidazo[1,2-a]pyridin-3-yl)pyrimidin-4-yl)-2-methyl-6-(3-methyl-1H-pyrazol-4-yl)morpholine] | < 10 | < 500 |  | 
25 | COCCn1cc([C@H]2C[C@@H](C)CN(c3nccc(-c4cnc5ccc(C(F)(F)F)cn45)n3)C2)cn1 [I-143, 3-(2-((3R,5R)-3-(1-(2-methoxyethyl)-1H-pyrazol-4-yl)-5-methylpiperidin-1-yl)pyrimidin-4-yl)-6-(trifluoromethyl)imidazo[1,2-a]pyridine] | 10 to 100 | < 500 |  | 
26 | Cn1cc(CN2CCN(c3ccnc(-c4cnc5ccc(C(F)(F)F)cn45)n3)CC2c2cn[nH]c2)cn1 (stereo not drawn) [I-384, 3-(4-(4-((1-methyl-1H-pyrazol-4-yl)methyl)-3-(1H-pyrazol-4-yl)piperazin-1-yl)pyrimidin-2-yl)-6-(trifluoromethyl)imidazo[1,2-a]pyridine] | < 10 | < 500 |  | 
27 | O=C(c1cnn(C2COC2)c1)N1CCN(c2ccnc(-c3cnc4ccc(C(F)(F)F)cn34)n2)CC1c1cn[nH]c1 (stereo not drawn) [I-417, (2-(1H-pyrazol-4-yl)-4-(2-(6-(trifluoromethyl)imidazo[1,2-a]pyridin-3-yl)pyrimidin-4-yl)piperazin-1-yl)(1-(oxetan-3-yl)-1H-pyrazol-4-yl)methanone] | 100 to 1000 | > 5000 |  | 
28 | FC(F)(F)c1ccc2ncc(-c3nccc(N4CCN(Cc5cnon5)C(c5cn[nH]c5)C4)n3)n2c1 (stereo not drawn) [I-461, 4-{4-[(1,2,5-oxadiazol-3-yl)methyl]-3-(1H-pyrazol-4-yl)piperazin-1-yl}-2-[6-(trifluoromethyl)imidazo[1,2-a]pyridin-3-yl]pyrimidine] | < 10 | < 500 |  | 
